Measured values as given in patent publication US12419858B2, “Salt of terphenyl compound” (Taiho Pharmaceutical Co., Ltd., priority 2019, dated 2025).

What was measured:
in vivo = test: in vivo
Description: Each drug was administered to the animal at a dose of 32 mg/5 mL/kg.

[1] = Moisture absorption/desorption test; details: 25° C.; for hygroscopicity / moisture absorption-desorption behaviour (in words): 5% RH to 95% RH and back; for weight change at maximum (moisture absorption/desorption): relative humidity from 5 to 95%
Description: Moisture absorption/desorption test was carried out on the following test conditions. A dedicated quartz holder was filled with about 10 mg of sample, and a weight of the sample at each humidity was measured and recorded in a continuous manner under the following conditions.

[2] = Solid stability test (accelerated test); details: for Purity, variation (Y) − (X) / Total mass of analogous substance, variation (Y) − (X): 4 weeks at 60° C. sealed versus before storage; for solid stability (in words): 4 weeks at 60° C.; for solid stability (in words) / Purity, 4 weeks after storage at 60° C. on sealed condition (Y) / Total mass of analogous substance, 4 weeks after storage at 60° C. on sealed condition (Y): sealed; for Purity, 4 weeks after storage at 60° C. on sealed condition (Y) / Total mass of analogous substance, 4 weeks after storage at 60° C. on sealed condition (Y) / Purity, before storage (X) / Total mass of analogous substance, before storage (X): HPLC; for Purity, 4 weeks after storage at 60° C. on sealed condition (Y) / Total mass of analogous substance, 4 weeks after storage at 60° C. on sealed condition (Y): 4 weeks at 60° C./ambient humidity
Description: Mass of analogous substance in the sample solution was measured by HPLC analysis.

SMILES: CC(C)(O)Cc1ccc(-c2ccc(C(=O)N3CC[C@H](N)C3)cc2-c2ccc(C#N)c(F)c2)c(F)c1 [free form of Compound A, 4-[5-[(3S)-3-aminopyrrolidine-1-carbonyl]-2-[2-fluoro-4-(2-hydroxy-2-methyl-propyl)phenyl]phenyl]-2-fluoro-benzonitrile]
- Cmax (in vivo; rat, in vivo, 32 mg/kg): 2560 nM
- Tmax (in vivo; rat, in vivo, 32 mg/kg): 4 h
- hygroscopicity / moisture absorption-desorption behaviour (in words) [1]: had the characteristic of channel hydrate
- hygroscopicity / moisture absorption-desorption behaviour (in words) ([1]; listed as free form): characteristic of hygroscopicity
- weight change at maximum (moisture absorption/desorption) [1]: about +5.6 % w/w
- Purity, variation (Y) − (X) [2]: −0.37%
- Total mass of analogous substance, variation (Y) − (X) [2]: +0.37%
- solid stability (in words) [2]: poor solid stability
- Purity, 4 weeks after storage at 60° C. on sealed condition (Y) [2]: 98.15%
- Total mass of analogous substance, 4 weeks after storage at 60° C. on sealed condition (Y) [2]: 1.85%
- Purity, before storage (X) [2]: 98.52%
- Total mass of analogous substance, before storage (X) [2]: 1.48%

SMILES: C/C=C/C=C/C(=O)O.CC(C)(O)Cc1ccc(-c2ccc(C(=O)N3CC[C@H](N)C3)cc2-c2ccc(C#N)c(F)c2)c(F)c1 [sorbic acid salt of Compound A, sorbic acid salt of 4-[5-[(3S)-3-aminopyrrolidine-1-carbonyl]-2-[2-fluoro-4-(2-hydroxy-2-methyl-propyl)phenyl]phenyl]-2-fluoro-benzonitrile]
- AUC (in vivo; rats, dose of 32 mg/5 mL/kg): 11.64 µM·h
- Cmax (in vivo; rats, dose of 32 mg/5 mL/kg): 2030 nM
- Tmax (in vivo; rats, dose of 32 mg/5 mL/kg): 2.3 h
- hygroscopicity / moisture absorption-desorption behaviour (in words) [1]: less adsorptive and/or disorptive of moisture
- weight change at maximum (moisture absorption/desorption) [1]: +1.9 % w/w
- Purity, variation (Y) − (X) [2]: −0.64%
- Total mass of analogous substance, variation (Y) − (X) [2]: +0.64%
- solid stability (in words) [2]: stable
- Purity, 4 weeks after storage at 60° C. on sealed condition (Y) [2]: 97.99%
- Total mass of analogous substance, 4 weeks after storage at 60° C. on sealed condition (Y) [2]: 2.01%
- Purity, before storage (X) [2]: 98.63%
- Total mass of analogous substance, before storage (X) [2]: 1.37%

SMILES: CC(C)(O)Cc1ccc(-c2ccc(C(=O)N3CC[C@H](N)C3)cc2-c2ccc(C#N)c(F)c2)c(F)c1.O=C(O)c1ccccc1 [benzoic acid salt of Compound A, benzoic acid salt of 4-[5-[(3S)-3-aminopyrrolidine-1-carbonyl]-2-[2-fluoro-4-(2-hydroxy-2-methyl-propyl)phenyl]phenyl]-2-fluoro-benzonitrile]
- Cmax (in vivo; rats, dose of 32 mg/5 mL/kg): 2680 nM
- Tmax (in vivo; rats, dose of 32 mg/5 mL/kg): 2.7 h
- hygroscopicity / moisture absorption-desorption behaviour (in words) [1]: less adsorptive and/or disorptive of moisture
- weight change at maximum (moisture absorption/desorption) [1]: +0.7 % w/w
- Purity, variation (Y) − (X) [2]: +0.13%
- Total mass of analogous substance, variation (Y) − (X) [2]: −0.13%
- solid stability (in words) [2]: almost no analogous substance was generated
- solid stability (in words) ([2]; listed as benzoate): stable
- Purity, 4 weeks after storage at 60° C. on sealed condition (Y) [2]: 98.06%
- Total mass of analogous substance, 4 weeks after storage at 60° C. on sealed condition (Y) [2]: 1.94%
- Purity, before storage (X) [2]: 97.93%
- Total mass of analogous substance, before storage (X) [2]: 2.07%
